Experiment [1] concerns the target human AKT1 (Homo sapiens (Human), UniProt P31749). The experiment in a line: AKT1 kinase activity inhibition (TR-FRET, biotinylated Crosstide substrate). The conditions noted are these: preincubation 120 min at 25° C.; ATP 150 μM; Crosstide 500 nM. Format: biochemical. The protocol: (§1) Preparation of AKT1 and AKT2 and measurement of in vitro inhibitory activity of the above-mentioned compounds against AKT1 and AKT2 kinase activity were carried out with reference to the method disclosed in Biochem. J. Vol. 385, pp 399-408 (2005). In the preparation of AKT1 and AKT2, human AKT1 and AKT2 to which a middle T antigen tag was added were expressed in Sf 9 insect cells, and then AKT1 and AKT2 were prepared following affinity purification and activation by PDK1. The prepared AKT1 and AKT2 were stored at −80° C. until the time of measurement of inhibitory activity of the compounds. In the measurement of inhibitory activity of the compounds, AKT1 or AKT2 and each compound of the present invention were preincubated at 25° C. for 120 minutes in a buffer solution for reaction (15 mM Tris-HCl pH 7.5, 0.01% Tween-20, 2 mM DTT). As a substrate, biotinylated Crosstide (bioton-KGSGSGRPRTSSFAEG), MgCl2, and ATP were added to final concentrations of 500 nM, 10 mM, and 150 μM, respectively, and reactions were carried out at 25° C. for 60 minutes. The reactions were stopped by adding EDTA to a final concentration of 80 mM. Then, a detection liquid in which an Eu-labeled anti-phosphorylation Crosstide antibody (PerkinElmer) and SureLight APC-SA (PerkinElmer) were contained at a final concentration of 0.5 nM and […], respectively, was added, and reactions were carried out at room temperature for 2 hours. Finally, the amount of fluorescence at the time of irradiation of excitation light having a wavelength of 337 nm was measured at dual wavelengths of 620 nm and 665 nm by PHERAstar FS (BMG LABTECH). The amount of phosphorylation was determined from the ratio of the fluorescence amounts at the dual wavelengths. The compound concentration at which phosphorylation can be inhibited by 50% was defined as […] (nM), and the results are shown in Table 4 below.
Background: Time-resolved FRET reads energy transfer from a long-lived donor to a nearby acceptor.

Experiment [2] concerns the target human AKT2 (Homo sapiens (Human), UniProt P31751). The experiment in a line: AKT2 kinase activity inhibition (TR-FRET, biotinylated Crosstide substrate). Format: biochemical. The settings on record: preincubation 120 min at 25° C.; ATP 150 μM; Crosstide 500 nM. The protocol:
as §1

For experiment [3], the system named is AKT Ser473 phosphorylation. The experiment in a line: Phosphorylated AKT (Ser473) inhibitory activity in cultured cell A2780 (Meso Scale Discovery assay). Format: cell-based. The conditions noted are these: A2780 cells, 3 hours treatment; average±standard deviation of three independent runs. The protocol:
(§2) To evaluate the inhibitory activity of the above compounds against AKT activity, AKT Ser 473 phosphorylation and phosphorylation of S6 ribosomal protein (S6RP) (a downstream factor of Akt signal) at Ser240/Ser244, which serve as indices for the activation status of AKT, were measured in extracts of cultured cells which had been treated with the above compounds. For the measurement, assays (manufactured by Meso Scale Discovery) utilizing electrochemiluminescence based on the ELISA principle were used for both AKT Ser473 and S6RP Ser240/Ser244.
(§3) In 10% FBS-containing RPMI1640 medium (Invitrogen), ovarian cancer-derived A2780 cells in the logarithmic growth phase were seeded at 4.5×10^4 cells/150 μL/well into polylysine coated 96-well flat-bottom plates, and cultured for one day in an incubator at 5% CO2, 37° C., and 100% humidity.
(§4) Each compound of the present invention was supplied as a stock solution prepared at a concentration of 10 mM in DMSO. Using this solution, a dilution series was prepared in DMSO solvent at 200-fold of the final concentrations (10, 3, 1, 0.3, 0.1, 0.03, 0.01, 0.003 μM). The day after the cells were seeded, the compound dilution series at a 200-fold concentration was diluted 50-fold in medium for cell culture. To each well of the aforementioned A2780 cell culture plates, 50 μL of the diluted compound dilution series was added. The plates were then placed back in the incubator, and the culture was continued for 3 hours at 5% CO2, 37° C., and 100% humidity.
(§5) Meso Scale Discovery's 96-Well Multi-Spot Phospho-AKT (Ser473) Assay (K151CAA-3) and Phospho (Ser240/244)/Total S6RP Assay (K11139D-2) were used. In advance, a necessary amount of the supplied cell extract buffer was dispensed, and protease inhibitor cocktail and protein phosphatase inhibitor cocktail were added thereto, and kept cold on ice. The culture plates of the cells cultured with the compounds for 3 hours were taken out and the medium was removed. 100 μL of the cell extract buffer kept cold was added per well, followed by extraction by shaking at 300 r.p.m. for 1 hour using a plate shaker while maintaining a temperature of 4° C. Using the obtained extracts at 40 μL/well for the Phospho-AKT (Ser473) Assay and at 15 μL/well for the Phospho(Ser240/244)/Total S6RP Assay, reactions were conducted at 4° C. overnight with shaking at 300 r.p.m. according to the document attached to the kits. The next day, after the wells were washed three times with the supplied wash buffer, 50 μL/well of SULFO-TAG™ sandwich antibody solution was added, and reactions were carried out at room temperature for 1 hour. The wells were washed with the wash buffer three times, and 150 μL of the supplied Read Buffer T was added to each well. The amounts of phosphorylation of AKT and S6RP were measured by a SECTOR Imager 6000 plate reader (manufactured by Meso Scale Discovery) within 30 minutes of the Read Buffer T addition.
(§6) The extraction buffer-only background was subtracted from all of the measurement values, and AKT and S6RP phosphorylation signals in the control cell extract treated with only DMSO were defined as 100%. The compound concentrations and the levels of phosphorylated AKT and S6PR (expressed as a percentage relative to the control) in each concentration were plotted, and IC50 concentration (nM) that achieves 50% inhibition of the control was determined.

Experiment [4] deals with S6 ribosomal protein (S6RP) Ser240/Ser244 phosphorylation. The experiment in a line: Phosphorylated S6RP (Ser240/Ser244) inhibitory activity in cultured cell A2780 (Meso Scale Discovery assay). The settings on record: A2780 cells, 3 hours treatment; average±standard deviation of three independent runs. Format: cell-based. The protocol: as §2, §3, §4, §5, §6

For orientation: IC50 means the concentration needed to halve the response being measured. A low value points to higher potency.

Sequence of human AKT2 (P31751 whole entry): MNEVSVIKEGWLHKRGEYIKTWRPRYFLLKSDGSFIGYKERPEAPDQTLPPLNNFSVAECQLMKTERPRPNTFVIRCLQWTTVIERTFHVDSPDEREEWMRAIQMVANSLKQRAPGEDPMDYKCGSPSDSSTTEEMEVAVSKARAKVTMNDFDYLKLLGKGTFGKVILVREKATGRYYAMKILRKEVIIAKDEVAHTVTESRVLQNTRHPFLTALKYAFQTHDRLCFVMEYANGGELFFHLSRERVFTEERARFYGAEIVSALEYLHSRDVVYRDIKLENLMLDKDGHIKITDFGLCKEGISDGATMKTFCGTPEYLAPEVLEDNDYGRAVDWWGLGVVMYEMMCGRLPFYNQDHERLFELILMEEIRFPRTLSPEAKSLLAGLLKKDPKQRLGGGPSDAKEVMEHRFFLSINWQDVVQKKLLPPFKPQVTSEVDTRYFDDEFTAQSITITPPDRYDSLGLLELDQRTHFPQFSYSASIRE
Sequence of human AKT1 (P31749 whole entry): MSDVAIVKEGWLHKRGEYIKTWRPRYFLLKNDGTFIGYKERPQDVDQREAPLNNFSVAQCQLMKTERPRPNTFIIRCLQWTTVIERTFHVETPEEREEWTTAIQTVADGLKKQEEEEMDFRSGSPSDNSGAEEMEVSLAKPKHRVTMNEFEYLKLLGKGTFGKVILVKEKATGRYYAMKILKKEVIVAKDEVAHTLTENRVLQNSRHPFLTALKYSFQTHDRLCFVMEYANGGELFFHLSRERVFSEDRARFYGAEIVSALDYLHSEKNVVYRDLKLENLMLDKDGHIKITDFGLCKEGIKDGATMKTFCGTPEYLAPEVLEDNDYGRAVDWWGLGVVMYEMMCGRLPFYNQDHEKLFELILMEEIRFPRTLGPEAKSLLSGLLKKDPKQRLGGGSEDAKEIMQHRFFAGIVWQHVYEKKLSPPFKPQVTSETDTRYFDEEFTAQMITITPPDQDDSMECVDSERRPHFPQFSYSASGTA

`N[C@]1(c2ccc(-c3nc4n(c3-c3ccccc3)COc3cccc(F)c3-4)cc2)C[C@](O)(C2CC2)C1` [Example 1, trans-3-amino-1-cyclopropyl-3-(4-(10-fluoro-3-phenyl-5H-benzo[e]imidazo[1,2-c][1,3]oxazin-2-yl)phenyl)cyclobutanol]: the IC50 worked out at 3.7 nM in experiment [1], 0.29 nM in experiment [2], 24 ± 1 nM in experiment [3] and 40 ± 13 nM in experiment [4].
For `N[C@]1(c2ccc(-c3nc4n(c3-c3ccncc3)COc3cccc(F)c3-4)cc2)C[C@](O)(C2CC2)C1` [Example 5, trans-3-amino-1-cyclopropyl-3-(4-(10-fluoro-3-(pyridin-4-yl)-5H-benzo[e]imidazo[1,2-c][1,3]oxazin-2-yl)phenyl)cyclobutanol] the same measures were 22 nM, 0.91 nM, 85 ± 24 nM and 232 ± 53 nM.
For `N[C@]1(c2ccc(-c3nc4n(c3-c3ccccc3)COc3ccccc3-4)cc2)C[C@](O)(C2CC2)C1` [Example 11, trans-3-amino-1-cyclopropyl-3-(4-(3-phenyl-5H-benzo[e]imidazo[1,2-c][1,3]oxazin-2-yl)phenyl)cyclobutanol] the same measures were 3.9 nM, 1 nM, 63 ± 15 nM and 83 ± 27 nM.
Take `COc1cccc2c1-c1nc(-c3ccc([C@]4(N)C[C@@](O)(C5CC5)C4)cc3)c(-c3ccccc3)n1CO2` [Example 16, trans-3-amino-1-cyclopropyl-3-(4-(10-methoxy-3-phenyl-5H-benzo[e]imidazo[1,2-c][1,3]oxazin-2-yl)phenyl)cyclobutanol]: the IC50 was determined as 4.8 nM in experiment [1], 0.35 nM in experiment [2], 31 ± 5 nM in experiment [3] and 38 ± 7 nM in experiment [4].
Taken in the same sequence, the figures for `COc1ccc2c(c1)-c1nc(-c3ccc([C@]4(N)C[C@@](O)(C5CC5)C4)cc3)c(-c3ccccc3)n1CO2` [Example 17, trans-3-amino-1-cyclopropyl-3-(4-(9-methoxy-3-phenyl-5H-benzo[e]imidazo[1,2-c][1,3]oxazin-2-yl)phenyl)cyclobutanol] were 1.8 nM, 5.1 nM, 33 ± 6 nM and 37 ± 7 nM.
Taken in the same sequence, the figures for `COc1ccc2c(c1)OCn1c-2nc(-c2ccc([C@]3(N)C[C@@](O)(C4CC4)C3)cc2)c1-c1ccccc1` [Example 18, trans-3-amino-1-cyclopropyl-3-(4-(8-methoxy-3-phenyl-5H-benzo[e]imidazo[1,2-c][1,3]oxazin-2-yl)phenyl)cyclobutanol] were 3.7 nM, 0.6 nM, 52 ± 6 nM and 58 ± 10 nM.
On to `N[C@]1(c2ccc(-c3nc4n(c3-c3ccccc3)COc3cccnc3-4)cc2)C[C@](O)(C2CC2)C1` [Example 27, trans-3-amino-1-cyclopropyl-3-(4-(3-phenyl-5H-imidazo[1,2-c]pyrido[2,3-e][1,3]oxazin-2-yl)phenyl)cyclobutanol], for which the IC50 is 11 nM in experiment [1], 1.6 nM in experiment [2], 66 ± 10 nM in experiment [3] and 100 ± 17 nM in experiment [4].
For `C[C@]1(O)C[C@@](N)(c2ccc(-c3nc4n(c3-c3ccccc3)COc3cccnc3-4)cc2)C1` [Example 28, trans-3-amino-1-methyl-3-(4-(3-phenyl-5H-imidazo[1,2-c]pyrido[2,3-e][1,3]oxazin-2-yl)phenyl)cyclobutanol] the same measures were 11 nM, 2 nM, 81 ± 9 nM and 131 ± 28 nM.
Taken in the same sequence, the figures for `CC[C@]1(O)C[C@@](N)(c2ccc(-c3nc4n(c3-c3ccccc3)COc3cccnc3-4)cc2)C1` [Example 30, trans-3-amino-1-ethyl-3-(4-(3-phenyl-5H-imidazo[1,2-c]pyrido[2,3-e][1,3]oxazin-2-yl)phenyl)cyclobutanol] were 33 nM, 4.6 nM, 104 ± 27 nM and 174 ± 47 nM.
Taken in the same sequence, the figures for `N[C@]1(c2ccc(-c3nc4n(c3-c3ccccc3)COc3ccncc3-4)cc2)C[C@](O)(C2CC2)C1` [Example 31, trans-3-amino-1-cyclopropyl-3-(4-(3-phenyl-5H-imidazo[1,2-c]pyrido[3,4-e][1,3]oxazin-2-yl)phenyl)cyclobutanol] were 4.2 nM, 0.78 nM, 30 ± 5 nM and 51 ± 7 nM.
As for `CC1(O)CC(N)(c2ccc(-c3nc4n(c3-c3ccccc3)COc3ccncc3-4)cc2)C1` (stereo not drawn) [Example 32, trans-3-amino-1-methyl-3-(4-(3-phenyl-5H-imidazo[1,2-c]pyrido[3,4-e][1,3]oxazin-2-yl)phenyl)cyclobutanol], the IC50 came to 6.6 nM in experiment [1], 1.1 nM in experiment [2], 40 ± 3 nM in experiment [3] and 62 ± 23 nM in experiment [4].
Taken in the same sequence, the figures for `N[C@]1(c2ccc(-c3nc4n(c3-c3ccccc3)COc3cnccc3-4)cc2)C[C@](O)(C2CC2)C1` [Example 35, trans-3-amino-1-cyclopropyl-3-(4-(3-phenyl-5H-imidazo[1,2-c]pyrido[4,3-e][1,3]oxazin-2-yl)phenyl)cyclobutanol] were 1.6 nM, 0.48 nM, 24 ± 3 nM and 33 ± 8 nM.
For `C[C@]1(O)C[C@@](N)(c2ccc(-c3nc4n(c3-c3ccccc3)COc3cnccc3-4)cc2)C1` [Example 36, trans-3-amino-1-methyl-3-(4-(3-phenyl-5H-imidazo[1,2-c]pyrido[4,3-e][1,3]oxazin-2-yl)phenyl)cyclobutanol] the same measures were 2 nM, 0.74 nM, 32 ± 6 nM and 36 ± 3 nM.
For `N[C@]1(c2ccc(-c3nc4n(c3-c3ccccc3)COc3ncccc3-4)cc2)C[C@](O)(C2CC2)C1` [Example 38, trans-3-amino-1-cyclopropyl-3-(4-(3-phenyl-5H-imidazo[1,2-c]pyrido[3,2-e][1,3]oxazin-2-yl)phenyl)cyclobutanol] the same measures were 1.4 nM, 0.91 nM, 23 ± 4 nM and 34 ± 6 nM.

(Values after patent publication US8772283B2, “Imidazo-oxazine compound or salt thereof” (Taiho Pharmaceutical Co., Ltd., priority 2011, dated 2014).)
